Assay results from patent publication US10590078B2, “Sodium channel blockers” (Daewoong Pharmaceutical Co., Ltd., priority 2015, dated 2020).
Read-outs that look alike come from different tables or passages of the source.

Biological target: human sodium ion channel 1.7 (hNav1.7) (Homo sapiens, UniProt Q15858)
Assay: Blocking effect against sodium ion channel Nav1.7, IonFlux16 auto patch clamp in hNav1.7 HEK293 cells
Assay type: cell-based
[1] = hNav1.7 HEK293 cells, inhibition of peak current after 50 seconds treatment, eight concentrations, read-out: IC50

Sequence of human sodium ion channel 1.7 (hNav1.7) (Q15858 whole entry): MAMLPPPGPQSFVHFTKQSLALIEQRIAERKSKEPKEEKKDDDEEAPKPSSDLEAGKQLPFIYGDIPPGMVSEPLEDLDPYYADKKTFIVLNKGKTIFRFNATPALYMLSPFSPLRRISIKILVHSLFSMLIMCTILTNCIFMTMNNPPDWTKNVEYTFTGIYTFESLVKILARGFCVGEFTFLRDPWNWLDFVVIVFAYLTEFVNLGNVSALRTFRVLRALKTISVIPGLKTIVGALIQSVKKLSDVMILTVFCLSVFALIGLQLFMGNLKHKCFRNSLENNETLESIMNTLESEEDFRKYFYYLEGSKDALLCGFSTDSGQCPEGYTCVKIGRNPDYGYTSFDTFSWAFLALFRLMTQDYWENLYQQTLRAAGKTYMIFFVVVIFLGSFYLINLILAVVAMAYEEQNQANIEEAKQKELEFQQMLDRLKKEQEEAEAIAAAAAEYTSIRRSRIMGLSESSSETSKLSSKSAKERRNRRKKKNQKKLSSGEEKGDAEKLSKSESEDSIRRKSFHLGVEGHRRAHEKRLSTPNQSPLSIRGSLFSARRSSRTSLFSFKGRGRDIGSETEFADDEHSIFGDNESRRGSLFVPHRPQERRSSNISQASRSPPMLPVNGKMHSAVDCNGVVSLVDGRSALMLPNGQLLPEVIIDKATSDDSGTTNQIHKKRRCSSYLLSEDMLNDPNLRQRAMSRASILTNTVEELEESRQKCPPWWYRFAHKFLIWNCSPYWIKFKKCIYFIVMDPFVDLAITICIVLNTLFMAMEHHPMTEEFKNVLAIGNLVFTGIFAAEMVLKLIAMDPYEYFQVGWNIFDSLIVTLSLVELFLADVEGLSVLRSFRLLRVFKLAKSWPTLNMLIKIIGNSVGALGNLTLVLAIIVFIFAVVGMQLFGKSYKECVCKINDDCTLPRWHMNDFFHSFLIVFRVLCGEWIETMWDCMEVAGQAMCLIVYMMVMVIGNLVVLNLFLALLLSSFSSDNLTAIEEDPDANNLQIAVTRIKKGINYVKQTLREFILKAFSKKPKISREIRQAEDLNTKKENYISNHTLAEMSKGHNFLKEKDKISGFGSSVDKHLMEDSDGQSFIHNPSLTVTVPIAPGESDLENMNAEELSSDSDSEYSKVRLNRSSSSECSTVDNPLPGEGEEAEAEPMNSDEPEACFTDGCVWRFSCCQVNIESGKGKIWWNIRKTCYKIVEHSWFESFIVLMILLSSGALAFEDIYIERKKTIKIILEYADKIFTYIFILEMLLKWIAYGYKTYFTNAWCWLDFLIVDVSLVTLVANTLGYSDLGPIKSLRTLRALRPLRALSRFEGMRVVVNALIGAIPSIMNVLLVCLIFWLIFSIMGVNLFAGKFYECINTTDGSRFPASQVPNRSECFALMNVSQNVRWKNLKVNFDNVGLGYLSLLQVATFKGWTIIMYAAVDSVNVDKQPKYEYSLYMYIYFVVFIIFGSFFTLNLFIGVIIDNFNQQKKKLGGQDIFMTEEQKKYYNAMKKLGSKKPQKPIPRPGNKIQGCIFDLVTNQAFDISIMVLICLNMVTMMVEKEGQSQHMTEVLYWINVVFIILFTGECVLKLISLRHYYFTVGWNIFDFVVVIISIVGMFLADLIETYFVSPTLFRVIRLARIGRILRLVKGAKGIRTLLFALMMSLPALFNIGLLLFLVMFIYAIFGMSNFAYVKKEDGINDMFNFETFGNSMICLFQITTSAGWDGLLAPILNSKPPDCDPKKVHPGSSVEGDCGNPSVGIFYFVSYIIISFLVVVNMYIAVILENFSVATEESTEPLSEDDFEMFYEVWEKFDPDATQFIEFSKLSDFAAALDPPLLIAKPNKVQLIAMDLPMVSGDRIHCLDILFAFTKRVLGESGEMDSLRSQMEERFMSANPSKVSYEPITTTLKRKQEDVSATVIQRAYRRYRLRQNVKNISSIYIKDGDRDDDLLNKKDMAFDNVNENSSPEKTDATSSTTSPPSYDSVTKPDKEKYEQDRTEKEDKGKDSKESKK

Compound	IC50 [1]	IC50
Cc1ccccc1-c1nn(-c2cc(F)c(C(=O)NS(C)(=O)=O)cc2Cl)c2ccccc12 [Example 173, 5-chloro-2-fluoro-N-(methylsulfonyl)-4-(3-(o-tolyl)-1H-indazol-1-yl)benzamide]	210 nM	–
COc1ccccc1-c1nn(-c2cc(F)c(C(=O)NS(C)(=O)=O)cc2Cl)c2ccccc12 [Example 174, 5-chloro-2-fluoro-4-(3-(2-methoxyphenyl)-1H-indazol-1-yl)-N-(methylsulfonyl)benzamide]	850 nM	–
CS(=O)(=O)NC(=O)c1cc(Cl)c(-n2nc(-c3ccc(F)cc3F)c3ccccc32)cc1F [Example 176, 5-chloro-4-(3-(2,4-difluorophenyl)-1H-indazol-1-yl)-2-fluoro-N-(methylsulfonyl)benzamide]	200 nM	–
CS(=O)(=O)NC(=O)c1cc(Cl)c(-n2nc(-c3cnccc3F)c3ccccc32)cc1F [Example 177, 5-chloro-2-fluoro-4-(3-(4-fluoropyridin-3-yl)-1H-indazol-1-yl)-N-(methylsulfonyl)benzamide]	970 nM	–
CS(=O)(=O)NC(=O)c1cc(Cl)c(-n2nc(-c3ccc(C(F)(F)F)cc3)c3ccccc32)cc1F [Example 178, 5-chloro-2-fluoro-N-(methylsulfonyl)-4-(3-(4-(trifluoromethyl)phenyl)-1H-indazol-1-yl)benzamide]	330 nM	–
CS(=O)(=O)NC(=O)c1cc(Cl)c(-n2nc(-c3ccc(F)cc3)c3ccccc32)cc1F [Example 179, 5-chloro-2-fluoro-4-(3-(4-fluorophenyl)-1H-indazol-1-yl)-N-(methylsulfonyl)benzamide]	390 nM	–
CS(=O)(=O)NC(=O)c1cc(Cl)c(-n2nc(-c3cccnc3)c3ccccc32)cc1F [Example 180, 5-chloro-2-fluoro-N-(methylsulfonyl)-4-(3-(pyridin-3-yl)-1H-indazol-1-yl)benzamide]	> 10000 nM	–
CS(=O)(=O)NC(=O)c1cc(Cl)c(-n2nc(-c3cccc(C#N)c3)c3ccccc32)cc1F [Example 181, 5-chloro-4-(3-(3-cyanophenyl)-1H-indazol-1-yl)-2-fluoro-N-(methylsulfonyl)benzamide]	837 nM	–
CS(=O)(=O)NC(=O)c1ccc(-n2nc(-c3cccc(C#N)c3)c3ccccc32)c(C#N)c1 [Example 183, 3-cyano-4-(3-(3-cyanophenyl)-1H-indazol-1-yl)-N-(methylsulfonyl)benzamide]	> 10000 nM	–
CS(=O)(=O)NC(=O)c1cc(Cl)c(-n2cc(-c3ccc(C#N)cc3)c3cc(Cl)cnc32)cc1F [Example 187, 5-chloro-4-(5-chloro-3-(4-cyanophenyl)-1H-pyrrolo[2,3-b]pyridin-1-yl)-2-fluoro-N-(methylsulfonyl)benzamide]	620 nM	–
CS(=O)(=O)NC(=O)c1cc(Cl)c(-n2cc(-c3ccc(C(F)(F)F)cc3)c3cc(Cl)cnc32)cc1F [Example 188, 5-chloro-4-(5-chloro-3-(4-(trifluoromethyl)phenyl)-1H-pyrrolo[2,3-b]pyridin-1-yl)-2-fluoro-N-(methylsulfonyl)benzamide]	–	50 nM
CS(=O)(=O)NC(=O)c1cc(Cl)c(-n2cc(-c3ccc(Cl)cc3F)c3cc(Cl)cnc32)cc1F [Example 189, 5-chloro-4-(5-chloro-3-(4-chloro-2-fluorophenyl)-1H-pyrrolo[2,3-b]pyridin-1-yl)-2-fluoro-N-(methylsulfonyl)benzamide]	110 nM	–
CS(=O)(=O)NC(=O)c1cc(Cl)c(-n2cc(-c3cccc(F)c3)c3cc(Cl)cnc32)cc1F [Example 190, 5-chloro-4-(5-chloro-3-(3-fluorophenyl)-1H-pyrrolo[2,3-b]pyridin-1-yl)-2-fluoro-N-(methylsulfonyl)benzamide]	170 nM	–
CS(=O)(=O)NC(=O)c1cc(Cl)c(-n2cc(-c3ccccc3F)c3cc(Cl)cnc32)cc1F [Example 191, 5-chloro-4-(5-chloro-3-(2-fluorophenyl)-1H-pyrrolo[2,3-b]pyridin-1-yl)-2-fluoro-N-(methylsulfonyl)benzamide]	110 nM	–
CS(=O)(=O)NC(=O)c1cc(Cl)c(-n2cc(-c3cccc(C(F)(F)F)c3)c3cc(Cl)cnc32)cc1F [Example 192, 5-chloro-4-(5-chloro-3-(3-(trifluoromethyl)phenyl)-1H-pyrrolo[2,3-b]pyridin-1-yl)-2-fluoro-N-(methylsulfonyl)benzamide]	270 nM	–
CS(=O)(=O)NC(=O)c1cc(Cl)c(-n2cc(-c3cccc(C#N)c3)c3cc(Cl)cnc32)cc1F [Example 194, 5-chloro-4-(5-chloro-3-(3-cyanophenyl)-1H-pyrrolo[2,3-b]pyridin-1-yl)-2-fluoro-N-(methylsulfonyl)benzamide]	480 nM	–
COc1ccc(-c2cn(-c3cc(F)c(C(=O)NS(C)(=O)=O)cc3Cl)c3ncc(Cl)cc23)cc1 [Example 196, 5-chloro-4-(5-chloro-3-(4-methoxyphenyl)-1H-pyrrolo[2,3-b]pyridin-1-yl)-2-fluoro-N-(methylsulfonyl)benzamide]	130 nM	–
CS(=O)(=O)NC(=O)c1cc(Cl)c(-n2cc(-c3ccccc3Cl)c3cc(Cl)cnc32)cc1F [Example 198, 5-chloro-4-(5-chloro-3-(2-chlorophenyl)-1H-pyrrolo[2,3-b]pyridin-1-yl)-2-fluoro-N-(methylsulfonyl)benzamide]	170 nM	–
COc1cc(F)ccc1-c1cn(-c2cc(F)c(C(=O)NS(C)(=O)=O)cc2Cl)c2ncc(Cl)cc12 [Example 199, 5-chloro-4-(5-chloro-3-(4-fluoro-2-methoxyphenyl)-1H-pyrrolo[2,3-b]pyridin-1-yl)-2-fluoro-N-(methylsulfonyl)benzamide]	200 nM	–
CS(=O)(=O)NC(=O)c1cc(Cl)c(-n2cc(-c3ccc(Cl)cc3)c3cc(F)cnc32)cc1F [Example 204, 5-chloro-4-(3-(4-chlorophenyl)-5-fluoro-1H-pyrrolo[2,3-b]pyridin-1-yl)-2-fluoro-N-(methylsulfonyl)benzamide]	100 nM	–
CS(=O)(=O)NC(=O)c1cc(Cl)c(-n2cc(-c3ccc(F)cc3)c3cc(F)cnc32)cc1F [Example 206, 5-chloro-2-fluoro-4-(5-fluoro-3-(4-fluorophenyl)-1H-pyrrolo[2,3-b]pyridin-1-yl)-N-(methylsulfonyl)benzamide]	210 nM	–
CS(=O)(=O)NC(=O)c1cc(Cl)c(-n2cc(-c3ccccc3Cl)c3cc(F)cnc32)cc1F [Example 207, 5-chloro-4-(3-(2-chlorophenyl)-5-fluoro-1H-pyrrolo[2,3-b]pyridin-1-yl)-2-fluoro-N-(methylsulfonyl)benzamide]	140 nM	–

Further lines, results first:

IC50 [1]	IC50	Compound
80 nM	–	CS(=O)(=O)NC(=O)c1cc(Cl)c(-n2nc(-c3ccc(F)cc3Cl)c3ccccc32)cc1F [Example 175, 5-chloro-4-(3-(2-chloro-4-fluorophenyl)-1H-indazol-1-yl)-2-fluoro-N-(methylsulfonyl)benzamide]
70 nM	–	CS(=O)(=O)NC(=O)c1cc(Cl)c(-n2nc(-c3ccc(Cl)cc3F)c3ccccc32)cc1F [Example 184, 5-chloro-4-(3-(4-chloro-2-fluorophenyl)-1H-indazol-1-yl)-2-fluoro-N-(methylsulfonyl)benzamide]
80 nM	–	CS(=O)(=O)NC(=O)c1cc(Cl)c(-n2cc(-c3ccc(F)cc3)c3cc(Cl)cnc32)cc1F [Example 185, 5-chloro-4-(5-chloro-3-(4-fluorophenyl)-1H-pyrrolo[2,3-b]pyridin-1-yl)-2-fluoro-N-(methylsulfonyl)benzamide]
80 nM	–	CS(=O)(=O)NC(=O)c1cc(Cl)c(-n2cc(-c3ccc(F)cc3F)c3cc(Cl)cnc32)cc1F [Example 186, 5-chloro-4-(5-chloro-3-(2,4-difluorophenyl)-1H-pyrrolo[2,3-b]pyridin-1-yl)-2-fluoro-N-(methylsulfonyl)benzamide]
100 nM	–	CS(=O)(=O)NC(=O)c1cc(Cl)c(-n2cc(-c3ccccc3C(F)(F)F)c3cc(Cl)cnc32)cc1F [Example 193, 5-chloro-4-(5-chloro-3-(2-(trifluoromethyl)phenyl)-1H-pyrrolo[2,3-b]pyridin-1-yl)-2-fluoro-N-(methylsulfonyl)benzamide]
80 nM	–	CS(=O)(=O)NC(=O)c1cc(Cl)c(-n2cc(-c3ccc(Cl)cc3)c3cc(Cl)cnc32)cc1F [Example 195, 5-chloro-4-(5-chloro-3-(4-chlorophenyl)-1H-pyrrolo[2,3-b]pyridin-1-yl)-2-fluoro-N-(methylsulfonyl)benzamide]
40 nM	–	CS(=O)(=O)NC(=O)c1cc(Cl)c(-n2cc(-c3ccc(F)cc3Cl)c3cc(Cl)cnc32)cc1F [Example 197, 5-chloro-4-(5-chloro-3-(2-chloro-4-fluorophenyl)-1H-pyrrolo[2,3-b]pyridin-1-yl)-2-fluoro-N-(methylsulfonyl)benzamide]
90 nM	–	Cc1cc(F)ccc1-c1cn(-c2cc(F)c(C(=O)NS(C)(=O)=O)cc2Cl)c2ncc(Cl)cc12 [Example 200, 5-chloro-4-(5-chloro-3-(4-fluoro-2-methylphenyl)-1H-pyrrolo[2,3-b]pyridin-1-yl)-2-fluoro-N-(methylsulfonyl)benzamide]
70 nM	–	CS(=O)(=O)NC(=O)c1cc(Cl)c(-n2cc(-c3ccc(Cl)cc3F)c3cc(F)cnc32)cc1F [Example 201, 5-chloro-4-(3-(4-chloro-2-fluorophenyl)-5-fluoro-1H-pyrrolo[2,3-b]pyridin-1-yl)-2-fluoro-N-(methylsulfonyl)benzamide]
50 nM	–	CS(=O)(=O)NC(=O)c1cc(Cl)c(-n2cc(-c3ccc(F)cc3Cl)c3cc(F)cnc32)cc1F [Example 202, 5-chloro-4-(3-(2-chloro-4-fluorophenyl)-5-fluoro-1H-pyrrolo[2,3-b]pyridin-1-yl)-2-fluoro-N-(methylsulfonyl)benzamide]
80 nM	–	CS(=O)(=O)NC(=O)c1cc(Cl)c(-n2cc(-c3ccc(F)cc3F)c3cc(F)cnc32)cc1F [Example 203, 5-chloro-4-(3-(2,4-difluorophenyl)-5-fluoro-1H-pyrrolo[2,3-b]pyridin-1-yl)-2-fluoro-N-(methylsulfonyl)benzamide]
50 nM	–	CS(=O)(=O)NC(=O)c1cc(Cl)c(-n2cc(-c3ccc(C(F)(F)F)cc3)c3cc(F)cnc32)cc1F [Example 205, 5-chloro-2-fluoro-4-(5-fluoro-3-(4-(trifluoromethyl)phenyl)-1H-pyrrolo[2,3-b]pyridin-1-yl)-N-(methylsulfonyl)benzamide]
